# Patent publication EP0003353A1, “A pharmaceutical composition for oral administration for treating hypertension” (Merck & Co., Inc., priority 1978, dated 1979)
# Tested on: spontaneously hypertensive (SH) rats
# Experiment: Mean arterial pressure of conscious SH rats, direct measurement by cannulation of the caudal artery
# Type: in vivo
# Conditions: for Mean arterial pressure at hours after treatment 0: 0 h; for Mean arterial pressure at hours after treatment 1/2: 1/2 h; for Mean arterial pressure at hours after treatment 1: 1 h; for Mean arterial pressure at hours after treatment 2: 2 h; for Mean arterial pressure at hours after treatment 4: 4 h; for Mean arterial pressure at hours after treatment 8: 8 h; for Mean arterial pressure at hours after treatment 12: 12 h; for Mean arterial pressure at hours after treatment 18: 18 h; for Mean arterial pressure at hours after treatment 24: 24 h
# Procedure: The test procedure used is substantially as follows: • The test animals used were conscious, male, SH rats weighing about 290 to about 340 grams. The arterial blood pressure was measured by a direct technique involving cannulation of the caudal artery. Initial blood pressure reading was recorded. The decarboxylase inhibitor was then administered intraperitoneally (i.p.) and about 5 minutes later the L-a-methyl-p-tyrosine was given [(i.p. or orally (p.o.)]. The blood pressure was then continuously recorded at 1/2 hour intervals for 24 hours. The effect on blood pressure of the decarboxylase inhibitor and the L-a-methyl-p-tyrosine alone was also obtained by this test method. The results of representative tests are in the following table: […]
# [1] = Test No. 2, Carbidopa 25 mg/kg i.p.
# [2] = Test No. 13, Carbidopa 25 mg/kg i.p.
# [3] = Test No. 3, α-methyl-p-tyrosine 5 mg/kg i.p.
# [4] = Test No. 4, α-methyl-p-tyrosine 20 mg/kg i.p.
# [5] = Test No. 5, α-methyl-p-tyrosine 40 mg/kg i.p.
# [6] = Test No. 6, α-methyl-p-tyrosine 80 mg/kg i.p.
# [7] = Test No. 14, α-Methyl-p-tyrosine 80 mg/kg p.o.
smiles,measurement,setting,value
C[C@@](Cc1ccc(O)c(O)c1)(NN)C(=O)O [Carbidopa],Mean arterial pressure at hours after treatment 0,[1],167 mm Hg
same,Mean arterial pressure at hours after treatment 1/2,[1],166 mm Hg
same,Mean arterial pressure at hours after treatment 1,[1],164 mm Hg
same,Mean arterial pressure at hours after treatment 2,[1],166 mm Hg
same,Mean arterial pressure at hours after treatment 4,[1],158 mm Hg
same,Mean arterial pressure at hours after treatment 8,[1],167 mm Hg
same,Mean arterial pressure at hours after treatment 12,[1],172 mm Hg
same,Mean arterial pressure at hours after treatment 18,[1],172 mm Hg
same,Mean arterial pressure at hours after treatment 24,[1],162 mm Hg
same,Mean arterial pressure at hours after treatment 0,[2],184 mm Hg
same,Mean arterial pressure at hours after treatment 1/2,[2],184 mm Hg
same,Mean arterial pressure at hours after treatment 1,[2],180 mm Hg
same,Mean arterial pressure at hours after treatment 2,[2],178 mm Hg
same,Mean arterial pressure at hours after treatment 4,[2],177 mm Hg
same,Mean arterial pressure at hours after treatment 8,[2],184 mm Hg
same,Mean arterial pressure at hours after treatment 12,[2],183 mm Hg
same,Mean arterial pressure at hours after treatment 18,[2],185 mm Hg
same,Mean arterial pressure at hours after treatment 24,[2],182 mm Hg
"C[C@](N)(Cc1ccc(O)cc1)C(=O)O [α-methyl-p-tyrosine, L-α-methyl-p-tyrosine]",Mean arterial pressure at hours after treatment 0,[3],165 mm Hg
same,Mean arterial pressure at hours after treatment 1/2,[3],155 mm Hg
same,Mean arterial pressure at hours after treatment 1,[3],162 mm Hg
same,Mean arterial pressure at hours after treatment 2,[3],160 mm Hg
same,Mean arterial pressure at hours after treatment 4,[3],161 mm Hg
same,Mean arterial pressure at hours after treatment 8,[3],167 mm Hg
same,Mean arterial pressure at hours after treatment 12,[3],164 mm Hg
same,Mean arterial pressure at hours after treatment 18,[3],168 mm Hg
same,Mean arterial pressure at hours after treatment 24,[3],164 mm Hg
same,Mean arterial pressure at hours after treatment 0,[4],165 mm Hg
same,Mean arterial pressure at hours after treatment 1/2,[4],152 mm Hg
same,Mean arterial pressure at hours after treatment 1,[4],159 mm Hg
same,Mean arterial pressure at hours after treatment 2,[4],157 mm Hg
same,Mean arterial pressure at hours after treatment 4,[4],146 mm Hg
same,Mean arterial pressure at hours after treatment 8,[4],156 mm Hg
same,Mean arterial pressure at hours after treatment 12,[4],155 mm Hg
same,Mean arterial pressure at hours after treatment 18,[4],161 mm Hg
same,Mean arterial pressure at hours after treatment 24,[4],166 mm Hg
same,Mean arterial pressure at hours after treatment 0,[5],166 mm Hg
same,Mean arterial pressure at hours after treatment 1/2,[5],148 mm Hg
same,Mean arterial pressure at hours after treatment 1,[5],152 mm Hg
same,Mean arterial pressure at hours after treatment 2,[5],145 mm Hg
same,Mean arterial pressure at hours after treatment 4,[5],135 mm Hg
same,Mean arterial pressure at hours after treatment 8,[5],140 mm Hg
same,Mean arterial pressure at hours after treatment 12,[5],134 mm Hg
same,Mean arterial pressure at hours after treatment 18,[5],130 mm Hg
same,Mean arterial pressure at hours after treatment 24,[5],135 mm Hg
same,Mean arterial pressure at hours after treatment 0,[6],167 mm Hg
same,Mean arterial pressure at hours after treatment 1/2,[6],166 mm Hg
same,Mean arterial pressure at hours after treatment 1,[6],158 mm Hg
same,Mean arterial pressure at hours after treatment 2,[6],146 mm Hg
same,Mean arterial pressure at hours after treatment 4,[6],138 mm Hg
same,Mean arterial pressure at hours after treatment 8,[6],131 mm Hg
same,Mean arterial pressure at hours after treatment 12,[6],130 mm Hg
same,Mean arterial pressure at hours after treatment 18,[6],136 mm Hg
same,Mean arterial pressure at hours after treatment 24,[6],130 mm Hg
same,Mean arterial pressure at hours after treatment 0,[7],169 mm Hg
same,Mean arterial pressure at hours after treatment 1/2,[7],165 mm Hg
same,Mean arterial pressure at hours after treatment 1,[7],166 mm Hg
same,Mean arterial pressure at hours after treatment 2,[7],161 mm Hg
same,Mean arterial pressure at hours after treatment 4,[7],143 mm Hg
same,Mean arterial pressure at hours after treatment 8,[7],147 mm Hg
same,Mean arterial pressure at hours after treatment 12,[7],161 mm Hg
same,Mean arterial pressure at hours after treatment 18,[7],165 mm Hg
same,Mean arterial pressure at hours after treatment 24,[7],173 mm Hg
